Measured values: paper PMC9718795, “Caffeic acid N-[3,5-bis(trifluoromethyl)phenyl] amide as a non-steroidal inhibitor for steroid 5α-reductase type 1 using a human keratinocyte cell-based assay and molecular dynamics” (Scientific Reports, 2022)

What was measured:
[1] = In vitro cytotoxic MTT assay against HaCaT cells; assay type: cell-based, human; settings: human, HaCaT cells (human keratinocytes), read-out: Cytotoxicity IC50 against HaCaTs
Experimental: The cytotoxicity of caffeic acid and its amide derivatives were evaluated with two cell lines, human keratinocyte (HaCaT) and DP cells, using the common cell viability assay with MTT. HaCaT and DP cells were seeded at 1 × 10^4 cell/well in 96-well plates in a complete DMEM medium, incubated overnight, and treated with test compounds at 0–50 µM for 24 h. The stock solutions of all the test compounds were prepared in DMSO. Each compound was serially diluted in DMEM to achieve concentrations at 0.5–50 µM; DMEM was used as the negative control. After 24 h of treatment, the culture medium was removed, and cell viability was determined by adding 100 µL of 0.5 mg/mL MTT at 37 °C in darkness for 3 h. After removing the MTT solution, 100 µL of DMSO was added to each well to dissolve the purple formazan crystals. The absorbance was measured at 570 nm using a microplate reader, and the IC50 value was calculated. Each experiment was performed in triplicates.

[2] = target: T1, steroid 5α-reductase type 1 (SRD5A1) (Homo sapiens, UniProt P18405); assay: HaCaT cell-based SRD5A1 inhibitory assay with direct DHT detection by HPTLC
T1 construct: HaCaTs-produced SRD5A1 smoothly converted testosterone to DHT; endogenous in cells; host or cells: HaCaT human keratinocytes
T1 sequence (P18405 1-259): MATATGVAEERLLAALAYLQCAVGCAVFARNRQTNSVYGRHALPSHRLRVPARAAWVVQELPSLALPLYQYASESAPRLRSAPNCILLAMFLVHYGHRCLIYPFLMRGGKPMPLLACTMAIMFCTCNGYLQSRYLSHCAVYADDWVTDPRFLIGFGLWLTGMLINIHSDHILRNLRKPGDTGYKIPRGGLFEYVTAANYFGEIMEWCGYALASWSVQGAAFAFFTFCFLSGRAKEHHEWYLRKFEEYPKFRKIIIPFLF

[3] = tested on: HaCaT cells; assay: Cell viability (MTT) run in parallel with the HaCaT-based SRD5A1 inhibitory assay; design: species or system human; settings: HaCaT
[4] = as above; design: species or system human; settings: human, HaCaT cells, HaCaT, 24 h
[5] = tested on: SRD5A1 mRNA; assay: SRD5A1 mRNA level by RT-qPCR in HaCaT cells; assay type: cell-based, human; settings: 0.5, 1 and 2.5 µM; 12 h and 24 h
Experimental: HaCaT cells (2 × 10^5 cells/well in 6 well-plates) were treated with compound 4 (0, 0.5, 1 and 2.5 µM) for 12 and 24 h. Then, total RNA was extracted by using Purelink RNA mini purification kit. The isolated RNA was purified by DNase I and further used as a template for synthesis of cDNA using RevertAid First Stand cDNA Synthesis Kit. Quantitative real-time PCR (RT-qPCR) was performed with a C100 Thermal Cycler (Bio-Rad CFX384 real-time pcr system) using Luna Universal qPCR Master Mix (M3003). Specific forward and reverse primers of the interested gene was indicated as following.
The reactions were incubated for 39 cycles of 95 °C for 5 s, 60 °C for 30 s and 65 °C for 5 s. The expression of target mRNA was determined as the relative comparison via the ΔCt method. The threshold (Ct) of target genes were normalized with GAPDH (Ct) values.

[6] = target: T2, HaCaTs-produced SRD5A1 (Homo sapiens, UniProt P18405); assay: Whole-cell-based kinetic study of HaCaT-produced SRD5A1 with HPTLC; design: Apparent Vmax: unit not given here; settings: 12 h
T2 construct: HaCaTs-produced SRD5A1 smoothly converted testosterone to DHT; endogenous in cells; host or cells: HaCaT human keratinocytes
T2 sequence (P18405 1-259): T1 sequence (P18405 1-259)
Experimental: The in vitro whole HaCaT cell-based assay for the kinetic inhibition against SRD5A1 included culturing the cells for 48 h, treating the cells with testosterone and compound 4 for 12 h and evaluating the % intensity of DHT and cell viability using HPTLC analysis and MTT assay, respectively. The HaCaT cells were seeded and incubated as same as the method shown in 3.8. For the evaluation of dose-dependent activity of testosterone, the different concentration of testosterone (0 − 50 μM) and DMEM with 0.1% DMSO were added. […] DMEM with 0.1% DMSO was used as negative control. Then, the cells were incubated for 12 h. The collection of cell culture medium, extraction process, sample preparation and HPTLC detection were prepared by the method mentioned above (3.8). The obtaining chromatogram was visualized by CAMAG HPTLC Software vision CATS and analyzed by Image J software. The percentage of DHT intensity was calculated based on the intensity of DHT normalized by the standard of DHT at 100 μM. At the same time, the cell viability of the treated cells was assessed by the MTT assay. Each experiment was repeated in triplicate.

Concentration dependence of inhibition of DHT production ([2]; 0.2–2.5 µM, HaCaT): concentration-dependent inhibition
IC50 ([2]; HaCaT cells, 10 µM testosterone, 24 h, read-out: IC50 of inhibition of DHT production (SRD5A1 activity)): 1440 ± 130 nM
inhibition at 2.5 µM ([2]; HaCaT, 2.5 µM, 12 h, read-out: Inhibition of SRD5A1 enzyme activity): ~50%
inhibition at 1 µM ([2]; HaCaT, compound 1.0 µM, HaCaT, 24 h, read-out: % Inhibition of DHT production ± SD): 46%
Potency of DHT inhibition relative to avicequinone C ([2]; IC50 1.44 vs 4.45 µM): 3 times
% Inhibition of DHT production ± SD ([2]; compound 1.0 µM, HaCaT, 24 h, 1 µM): 45.67 ± 3.57%
Apparent Vmax ([6]; compound 4 0.2 µM): 96.08
Apparent Vmax ([6]; compound 4 0.5 µM): 76.27
Apparent Vmax ([6]; compound 4 1.0 µM): 74.06
Apparent Vmax ([6]; compound 4 2.5 µM): 69.85
Ki ([6]; mixed-model inhibition analysis, non-linear): 2380 nM
% DHT intensity ± S.D. ([6]; testosterone 1 µM, compound 4 0.2 µM): 0.83 ± 0.219%
% DHT intensity ± S.D. ([6]; testosterone 1 µM, compound 4 0.5 µM): 0.70 ± 0.16%
% DHT intensity ± S.D. ([6]; testosterone 1 µM, compound 4 1.0 µM): 0.12 ± 0.01%
% DHT intensity ± S.D. ([6]; testosterone 1 µM, compound 4 2.5 µM): 0.13 ± 0.03%
% DHT intensity ± S.D. ([6]; testosterone 5 µM, compound 4 0.2 µM): 29.00 ± 1.829%
% DHT intensity ± S.D. ([6]; testosterone 5 µM, compound 4 0.5 µM): 44.57 ± 9.66%
% DHT intensity ± S.D. ([6]; testosterone 5 µM, compound 4 1.0 µM): 34.49 ± 3.82%
% DHT intensity ± S.D. ([6]; testosterone 5 µM, compound 4 2.5 µM): 0.31 ± 0.04%
% DHT intensity ± S.D. ([6]; testosterone 10 µM, compound 4 0.2 µM): 48.11 ± 5.339%
% DHT intensity ± S.D. ([6]; testosterone 10 µM, compound 4 0.5 µM): 23.04 ± 2.83%
% DHT intensity ± S.D. ([6]; testosterone 10 µM, compound 4 1.0 µM): 27.21 ± 2.98%
% DHT intensity ± S.D. ([6]; testosterone 10 µM, compound 4 2.5 µM): 30.48 ± 5.08%
% DHT intensity ± S.D. ([6]; testosterone 25 µM, compound 4 0.2 µM): 86.19 ± 4.08%
% DHT intensity ± S.D. ([6]; testosterone 25 µM, compound 4 0.5 µM): 71.91 ± 2.00%
% DHT intensity ± S.D. ([6]; testosterone 25 µM, compound 4 1.0 µM): 68.49 ± 0.95%
% DHT intensity ± S.D. ([6]; testosterone 25 µM, compound 4 2.5 µM): 46.20 ± 0.91%
% DHT intensity ± S.D. ([6]; testosterone 50 µM, compound 4 0.2 µM): 90.49 ±10.32%
% DHT intensity ± S.D. ([6]; testosterone 50 µM, compound 4 0.5 µM): 72.72 ± 12.38%
% DHT intensity ± S.D. ([6]; testosterone 50 µM, compound 4 1.0 µM): 65.61 ± 2.06%
% DHT intensity ± S.D. ([6]; testosterone 50 µM, compound 4 2.5 µM): 55.01 ± 2.40%
Mode of SRD5A1 inhibition ([6]; whole-cell): mixed inhibition
Compound: O=C(C=Cc1ccc(O)c(O)c1)Nc1cc(C(F)(F)F)cc(C(F)(F)F)c1 [Compound 4, 3-(3,4-dihydroxyphenyl)-N-[3,5-bis (trifluoromethyl)phenyl]-2-propenamide]
IC50 at 24 h [1]: 30000 ± 8690 nM
Cytotoxicity between control and treatment groups ([3]; 0.2, 0.5, 1 and 2.5 µM): no significant cytotoxicity
% Cell viability ± SD ([3]; compound 1.0 µM, 24 h, 1 µM): 87.85 ± 1.13%
viability at 24 h, 1 µM ([4]; compound 1.0 µM, read-out: % Cell viability ± SD): 88%
viability at 24 h, 5 µM ([4]; compound 5 µM, read-out: Viability of treated cells): < 80%
Effect on mRNA expression of SRD5A1 [5]: did not affect
